In US8895585B2, “Nicotinamide derivative or salt thereof” (FUJIFILM Corporation, priority 2010, dated 2014):
Read-outs that look alike come from different tables or passages of the source.

How the values were obtained:
[1] = biological target: T1, glutathione S-transferase (GST)-fused full-length human Syk protein (Homo sapiens, UniProt P43405); experiment: Syk enzyme assay; type: biochemical
T1 construct: (GST)-fused full-length human Syk protein; GST (glutathione S-transferase); purchased Carna Biosciences
Outline: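 GST-tagged full-length human Syk (baculovirus) preincubated with compound 15 min at room temperature (pH 7.0, 10 mM MgCl2), then reacted 40 min with 0.4 μM biotinylated peptide substrate and 27 μM ATP (final). Phosphorylation read by HTRF (615/665 nm) after EDTA stop; IC50 reported.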

THP-1 cells = experiment: TNFα generation assay; type: cell-based, human
Outline: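 THP-1 cells differentiated to macrophage-like cells with 10 ng/ml IFN-γ for 2 days, preincubated with compound 30 min at room temperature, then cultured 7 h on plates coated with human IgG (10 μg/ml). Secreted TNFα measured by ELISA or AlphaLISA.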

[2] = Syk enzyme assay, Test Example 1, read-out: IC50 of Syk-inhibitory activity
[3] = Homo sapiens, THP-1, THP-1 cells, Table 22, read-out: IC50 in TNFα generation assay
[4] = THP-1 cells, Table 22, read-out: IC50 in TNFα generation assay

| SMILES | IC50 ([1]; read-out: Syk-inhibitory activity (IC50)) [nM] | IC50 (THP-1 cells; Homo sapiens, THP-1, 7 h, IFN-γ-differentiated THP-1 cells on human IgG-coated plate, cultured 7 hours, read-out: TNFα generation inhibitory activity (IC50)) [nM] | IC50 [1, 2] [nM] | IC50 (THP-1 cells; [3]) [nM] | IC50 (THP-1 cells; [4]) [nM] |
| --- | --- | --- | --- | --- | --- |
| NCCNc1nc(Nc2ccc3ncccc3c2)c(C(N)=O)cc1F [Example 6-26, 6-((2-aminoethyl)amino)-5-fluoro-2-(quinolin-6-ylamino)nicotinamide] | ≤ 1000 | ≤ 200 | – | – | – |
| C[C@H](N)CNc1nc(Nc2cnc3ccccc3c2)c(C(N)=O)cc1F [Example 006-092, (S)-6-((2-aminopropyl)amino)-5-fluoro-2-((quinolin-3-yl)amino)nicotinamide] | – | – | < 10 | < 65 | – |
| COc1cc(Nc2nc(NC[C@H](C)N)c(F)cc2C(N)=O)cc(OC)c1 [Example 006-093, (S)-6-((2-aminopropyl)amino)-2-(3,5-dimethoxyphenylamino)-5-fluoronicotinamide] | – | – | < 10 | < 65 | – |
| Cc1cncc(Nc2nc(NC[C@H](C)N)c(F)cc2C(N)=O)c1 [Example 006-094, (S)-6-((2-aminopropyl)amino)-5-fluoro-2-((5-methylpyridin-3-yl)amino)nicotinamide] | – | – | 10 to 50 | 65 to 130 | – |
| COc1cc(Nc2nc(NC[C@H](C)N)c(F)cc2C(N)=O)ccn1 [Example 006-096, (S)-6-((2-aminopropyl)amino)-5-fluoro-2-((2-methoxypyridin-4-yl)amino)nicotinamide] | – | – | 10 to 50 | < 65 | – |
| C[C@H](N)CNc1nc(Nc2cccc(-n3nccn3)c2)c(C(N)=O)cc1F [Example 006-097, (S)-2-((3-(2H-1,2,3-triazol-2-yl)phenyl)amino)-6-((2-aminopropyl)amino)-5-fluoronicotinamide] | – | – | < 10 | < 65 | – |
| Cc1cccc(Nc2nc(NC[C@H](C)N)c(F)cc2C(N)=O)c1 [Example 006-099] | – | – | 10 to 50 | < 65 | – |
| COc1cc(Nc2nc(N[C@H](C)CN)c(F)cc2C(N)=O)cc(OC)c1 [Example 006-100, (R)-6-((1-aminopopan-2-yl)amino)-2-((3,5-dimethoxyphenyl)amino)-5-fluoronicotinamide] | – | – | < 10 | 65 to 130 | – |
| Cc1cncc(Nc2nc(N[C@H](C)CN)c(F)cc2C(N)=O)c1 [Example 006-101, (R)-6-((1-aminopropan-2-yl)amino)-5-fluoro-2-((5-methylpyridin-3-yl)amino)nicotinamide] | – | – | 10 to 50 | 65 to 130 | – |
| C[C@H](CN)Nc1nc(Nc2ccc3c(cnn3C)c2)c(C(N)=O)cc1F [Example 006-102, (R)-6-((1-aminopropan-2-yl)amino)-5-fluoro-2-((1-methyl-1H-indazol-5-yl)amino)nicotinamide] | – | – | 10 to 50 | 65 to 130 | – |
| Cc1cncc(Nc2nc(N[C@@H]3CCCC[C@@H]3N)c(F)cc2C(N)=O)c1 [Example 006-103, 6-(((1R,2S)-2-aminocyclohexyl)amino)-5-fluoro-2-((5-methylpyridin-3-yl)amino)nicotinamide] | – | – | < 10 | < 65 | – |
| Cc1ccc(Nc2nc(N[C@@H]3CCCC[C@@H]3N)c(F)cc2C(N)=O)cn1 [Example 006-104, 6-(((1R,2S)-2-aminocyclohexyl)amino)-5-fluoro-2-((6-methylpyridin-3-yl)amino)nicotinamide] | – | – | < 10 | 65 to 130 | – |
| Cc1cncc(Nc2nc(N[C@H](C)[C@H](C)N)c(F)cc2C(N)=O)c1 [Example 006-108] | – | – | 10 to 50 | – | 65 to 130 |
| C[C@H](N)[C@@H](C)Nc1nc(Nc2cccc3ncccc23)c(C(N)=O)cc1F [Example 006-110] | – | – | < 10 | – | 65 to 130 |
| NC(=O)c1cc(F)c(N[C@@H]2CCCC[C@@H]2N)nc1Nc1cncc(-c2ccccc2)c1 [Example 006-113, 6-(((1R,2S)-2-aminocyclohexyl)amino)-5-fluoro-2-((5-phenylpyridin-3-yl)amino)nicotinamide] | – | – | < 10 | < 65 | – |
| COc1cc(Nc2nc(N[C@@H]3CCCC[C@@H]3N)c(F)cc2C(N)=O)cc(OC)n1 [Example 006-114, 6-(((1R,2S)-2-aminocyclohexyl)amino)-2-((2,6-dimethoxypyridin-4-yl)amino)-5-fluoronicotinamide] | – | – | < 10 | 65 to 130 | – |
| Cn1ncc2cc(Nc3nc(NC[C@@H](N)c4ccccc4)c(F)cc3C(N)=O)ccc21 [Example 006-119, (S)-6-((2-amino-2-phenylethyl)amino)-5-fluoro-2-((1-methyl-1H-indazol-5-yl)amino)nicotinamide] | – | – | 10 to 50 | 130 to 200 | – |

| SMILES | IC50 ([1]; read-out: Syk-inhibitory activity (IC50)) [nM] | IC50 (THP-1 cells; Homo sapiens, THP-1, 7 h, IFN-γ-differentiated THP-1 cells on human IgG-coated plate, cultured 7 hours, read-out: TNFα generation inhibitory activity (IC50)) [nM] | IC50 [1, 2] [nM] | IC50 (THP-1 cells; [3]) [nM] | IC50 (THP-1 cells; [4]) [nM] |
| --- | --- | --- | --- | --- | --- |
| NC[C@H](Nc1nc(Nc2cccc(-n3nccn3)c2)c(C(N)=O)cc1F)c1ccccc1 [Example 006-132, (R)-2-((3-(2H-1,2,3-triazol-2-yl)phenyl)amino)-6-((2-amino-1-phenylethyl)amino)-5-fluoronicotinamide] | – | – | < 10 | 130 to 200 | – |
| COc1cc(Nc2nc(N[C@@H](CN)c3ccccc3)c(F)cc2C(N)=O)ccn1 [Example 006-133, (R)-6-((2-amino-1-phenylethyl)amino)-5-fluoro-2-((2-methoxypyridin-4-yl)amino)nicotinamide] | – | – | 10 to 50 | 130 to 200 | – |
| CC(C)C[C@H](CN)Nc1nc(Nc2ccc3c(cnn3C)c2)c(C(N)=O)cc1F [Example 006-142, (R)-6-((1-amino-4-methylpentan-2-yl)amino)-5-fluoro-2-((1-methyl-1H-indazol-5-yl)amino)nicotinamide] | – | – | < 10 | < 65 | – |
| CC(C)C[C@H](CN)Nc1nc(Nc2ccnc(-n3ccnn3)c2)c(C(N)=O)cc1F [Example 006-143, (R)-2-((2-(1H-1,2,3-triazol-1-yl)pyridin-4-yl)amino)-6-((1-amino-4-methylpentan-2-yl)amino)-5-fluoronicotinamide] | – | – | < 10 | 130 to 200 | – |
| CC(C)C[C@H](CN)Nc1nc(Nc2cncc(C3CC3)c2)c(C(N)=O)cc1F [Example 006-144, (R)-6-((1-amino-4-methylpentan-2-yl)amino)-2-((5-cyclopropylpyridin-3-yl)amino)-5-fluoronicotinamide] | – | – | < 10 | 65 to 130 | – |
| CCOc1cc(Nc2nc(N[C@@H](CN)CC(C)C)c(F)cc2C(N)=O)ccn1 [Example 006-145, (R)-6-((1-amino-4-methylpentan-2-yl)amino)-2-((2-ethoxypyridin-4-yl)amino)-5-fluoronicotinamide] | – | – | < 10 | 65 to 130 | – |
| NC(=O)c1cc(F)c(N[C@@H]2CCCC[C@@H]2N)nc1Nc1ccnc(-n2nccn2)c1 [Example 006-146, 2-((2-(2H-1,2,3-triazol-2-yl)pyridin-4-yl)amino)-6-(((1R,2S)-2-aminocyclohexyl)amino)-5-fluoronicotinamide] | – | – | < 10 | – | < 65 |
| CC(C)C[C@H](CN)Nc1nc(Nc2ccc3scnc3c2)c(C(N)=O)cc1F [Example 006-147, (R)-6-((1-amino-4-methylpentan-2-yl)amino)-2-(benzo[d]thiazol-5-ylamino)-5-fluoronicotinamide] | – | – | < 10 | 130 to 200 | – |
| Cc1cnc2cc(Nc3nc(N[C@@H](CN)CC(C)C)c(F)cc3C(N)=O)ccc2n1 [Example 006-148, (R)-6-((1-amino-4-methylpentan-2-yl)amino)-5-fluoro-2-((2-methylquinoxalin-6-yl)amino)nicotinamide] | – | – | < 10 | 130 to 200 | – |
| CC(C)C[C@H](CN)Nc1nc(Nc2ccnc(-n3cncn3)c2)c(C(N)=O)cc1F [Example 006-153, (R)-2-((2-(1H-1,2,4-triazol-1-yl)pyridin-4-yl)amino)-6-((1-amino-4-methylpentan-2-yl)amino)-5-fluoronicotinamide] | – | – | < 10 | < 65 | – |
| CC(C)C[C@H](CN)Nc1nc(Nc2ccnc(-n3nccn3)c2)c(C(N)=O)cc1F [Example 006-154, (R)-2-((2-(2H-1,2,3-triazol-2-yl)pyridin-4-yl)amino)-6-((1-amino-4-methylpentan-2-yl)amino)-5-fluoronicotinamide] | – | – | < 10 | 65 to 130 | – |
| CC(C)C[C@H](CN)Nc1nc(Nc2ccnc(-c3ccoc3)c2)c(C(N)=O)cc1F [Example 006-155, (R)-6-((1-amino-4-methylpentan-2-yl)amino)-5-fluoro-2-((2-(furan-3-yl)pyridin-4-yl)amino)nicotinamide] | – | – | < 10 | 65 to 130 | – |
| COc1cc(Nc2nc(N[C@@H](CN)CC(C)C)c(F)cc2C(N)=O)cc(OC)n1 [Example 006-156, (R)-6-((1-amino-4-methylpentan-2-yl)amino)-2-((2,6-dimethoxypyridin-4-yl)amino)-5-fluoronicotinamide] | – | – | < 10 | 130 to 200 | – |
| CC(C)CC(Nc1nc(Nc2ccc3ncccc3c2)c(C(N)=O)cc1F)[C@H](C)N (stereo partly drawn) [Example 006-159, 6-(((2S)-2-amino-5-methylhexan-3-yl)amino)-5-fluoro-2-(quinolin-6-ylamino)nicotinamide] | – | – | < 10 | 130 to 200 | – |
| CC(C)[C@H](CN)Nc1nc(Nc2ccc3ncccc3c2)c(C(N)=O)cc1F [Example 006-160, (R)-6-((1-amino-3-methylbutan-2-yl)amino)-5-fluoro-2-(quinolin-6-ylamino)nicotinamide] | – | – | < 10 | 65 to 130 | – |
| CCC[C@H](CN)Nc1nc(Nc2ccc3ncccc3c2)c(C(N)=O)cc1F [Example 006-161, (R)-6-((1-aminopentan-2-yl)amino)-5-fluoro-2-(quinolin-6-ylamino)nicotinamide] | – | – | < 10 | < 65 | – |
